Source: US20240269489A1, “TREATMENT OF THE CENTRAL NERVOUS SYSTEM” (ACT Therapeutics Ltd, priority 2021, published 2024)

Test system: subcutaneous prostate cancer model (PC3)
Assay: Tumour specific uptake of Evans Blue after ACT, variable Enhancement MI
Assay type: in vivo, mice
Conditions: cluster composition 2 mL/kg i.v.; Enhancement 0.5 MHz, MI 0, 0.1, 0.2, 0.3, 0.4; tumours excised 30 min after treatment
Protocol: To investigate the effect of MI variance of the US Enhancement field, tumour specific uptake of Evans Blue (EB, fluorescent dye) has been investigated in a subcutaneous prostate cancer model (PC3) in mice. Five groups with Enhancement insonation MIs of 0, 0.1, 0.2, 0.3 and 0.4 were investigated (N=3 animals per group). […] 30 min after treatment, the tumors were excised and the amount of EB was measured by spectrophotometry at 620 nm.

Cc1cc(-c2ccc(/N=N/c3ccc4c(S(=O)(=O)O)cc(S(=O)(=O)O)c(N)c4c3O)c(C)c2)ccc1/N=N/c1ccc2c(S(=O)(=O)O)cc(S(=O)(=O)O)c(N)c2c1O [Evans Blue]
tissue uptake of Evans Blue as a function of Enhancement MI: increases from no US (MI=0) to MI=0.1 and further with MI=0.2, but then drops again with MI=0.3
